Experiment [1] has as its system Puccinia triticina; Synonym: Puccinia recondite f. sp. tritici. Briefly: Wheat brown rust (PUCCRT) disease control on wheat seedlings. The class given is in vivo. To be noted: for pest or weed control at 100 ppm / pest or weed control at 121.5 g/ha: Puccinia triticina; for pest or weed control at 100 ppm / PUCCRT 1DP disease control / PUCCRT 3DC disease control: 100 ppm; for pest or weed control at 121.5 g/ha: low volume application, 121.5 g/H. An outline of the steps:
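Acetone solutions diluted in nine volumes of water with 110 ppm Triton X-100 sprayed to run-off on first-leaf Yuma wheat seedlings (track spray: EC with 0.1% Trycol 5941). Puccinia triticina spores inoculated before or after treatment; overnight dark dew at 22° C., 100% RH, then greenhouse at 24° C. for disease development.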

The subject of experiment [2] is Mycosphaerella graminicola; Anamorph: Septoria tritici. Briefly: Leaf blotch of wheat (SEPTTR) disease control on wheat seedlings. To be noted: for pest or weed control at 100 ppm / pest or weed control at 121.5 g/ha: Zymoseptoria tritici; for pest or weed control at 100 ppm / SEPTTR 1DP disease control / SEPTTR 3DC disease control: 100 ppm; for pest or weed control at 121.5 g/ha: low volume application, 121.5 g/H. Type of experiment: in vivo. An outline of the steps: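 Wheat seedlings (Yuma, first leaf emerged) sprayed to run-off with compound in acetone/water with 110 ppm Triton X-100, or track-sprayed as EC with 0.1% Trycol 5941. Septoria tritici spores inoculated before or after treatment. Dew chambers, then 20 °C greenhouse. Percent disease control derived from severity (0–100%) relative to untreated plants.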

The mark [3] stands for this setting: 24 h, High volume application, 1 Day Protectant, read-out: PUCCRT 1DP disease control.
[4] abbreviates: 72 h, High volume application, 3 Day Curative, read-out: PUCCRT 3DC disease control.
[5] abbreviates: 24 h, High volume application, 1 Day Protectant, read-out: SEPTTR 1DP disease control.
The mark [6] stands for this setting: 72 h, High volume application, 3 Day Curative, read-out: SEPTTR 3DC disease control.
[7] abbreviates: 24 h, Wheat Brown Rust, 1 Day Protectant, high volume application, read-out: Disease Control PUCCRT 1 DP 100 ppm.
Setting [8] is: 72 h, Wheat Brown Rust, 3 Day Curative, high volume application, read-out: Disease Control PUCCRT 3 DC 100 ppm.
Setting [9] is: 24 h, Wheat Leaf Blotch, 1 Day Protectant, high volume application, read-out: Disease Control SEPTTR 1 DP 100 ppm.
Setting [10] is: 72 h, Wheat Leaf Blotch, 3 Day Curative, high volume application, read-out: Disease Control SEPTTR 3 DC 100 ppm.
Setting [11] is: High volume application, 1 Day Protectant.
Setting [12] is: High volume application, 3 Day Curative.
The mark [13] stands for this setting: 24 h, Wheat Brown Rust, 1 Day Protectant, read-out: Disease Control PUCCRT 1 DP 121.5 g/H.
[14] abbreviates: 72 h, Wheat Brown Rust, 3 Day Curative, read-out: Disease Control PUCCRT 3 DC 121.5 g/H.
[15] abbreviates: 24 h, Wheat Leaf Blotch, 1 Day Protectant, read-out: Disease Control SEPTTR 1 DP 121.5 g/H.

Where two headings read alike, the source gives them in different places. Some results are limits rather than exact numbers.

These results are taken from patent US9681664B2, “Macrocyclic picolinamides as fungicides” (Dow Agrosciences LLC, priority 2012, dated 2017).

Take `COc1ccnc(C(=O)N[C@H]2CCC[C@H](OCC(C)C)[C@@H](OCCC(C)OC)[C@H](C)OC2=O)c1OCOC(C)=O` (stereo partly shown) [F72]: the pest or weed control at 100 ppm in experiment [1] (setting [3]), in experiment [1] (setting [4]), in experiment [2] (setting [5]) and in experiment [2] (setting [6]) was 80 to 100% in each case.
Take `COc1ccnc(C(=O)N[C@H]2CCC[C@H](OCC(C)C)[C@@H](OCCC(C)OC)[C@H](C)OC2=O)c1OC(C)=O` (stereo partly shown) [F83]: the pest or weed control at 100 ppm in experiment [1] (setting [3]), in experiment [1] (setting [4]), in experiment [2] (setting [5]) and in experiment [2] (setting [6]) was 80 to 100% in each case.
Take `COc1ccnc(C(=O)N[C@H]2CCC[C@H](Oc3ccccc3)[C@@H](OC(=O)C3CC3)[C@H](C)OC2=O)c1O` [F239]: the pest or weed control at 100 ppm in experiment [1] (setting [7]) is 0 to 80%; in experiment [1] (setting [8]), less than 0%; in experiment [2] (setting [9]), less than 0%; in experiment [2] (setting [10]), 0 to 80%.
As to `COc1ccnc(C(=O)N[C@H]2CCC[C@H](OCC(C)C)[C@@H](OC(=O)C3CCCC3)[C@H](C)OC2=O)c1OC(C)=O` [F151], the pest or weed control at 100 ppm in experiment [1] (setting [3]), in experiment [1] (setting [4]), in experiment [2] (setting [5]) and in experiment [2] (setting [6]) was 80 to 100% each time.
As for `COc1ccnc(C(=O)N[C@H]2CCC[C@H](OCc3ccccc3)[C@@H](Oc3ccccc3)[C@H](C)OC2=O)c1O` [F23], the pest or weed control at 100 ppm in experiment [1] (setting [3]), in experiment [1] (setting [4]), in experiment [2] (setting [5]) and in experiment [2] (setting [6]) was 80 to 100% throughout.
As for `COc1ccnc(C(=O)N[C@H]2CCC[C@H](OCC(C)C)[C@@H](Oc3ccc(C)cc3)[C@H](C)OC2=O)c1O` [F82], the pest or weed control at 100 ppm was 0 to 80% in experiment [1] (setting [3]), 0 to 80% in experiment [1] (setting [4]), less than 0% in experiment [2] (setting [5]) and 0 to 80% in experiment [2] (setting [6]).
As to `COc1ccnc(C(=O)N[C@H]2CCC[C@H](OCC(C)C)[C@@H](OC/C=C/C(F)(F)F)[C@H](C)OC2=O)c1OC(C)=O` [F58], the pest or weed control at 100 ppm in experiment [1] (setting [3]), in experiment [1] (setting [4]), in experiment [2] (setting [5]) and in experiment [2] (setting [6]) was 80 to 100% in each case.
With “[4-methoxy-2-[[(3S,7S,8S,9S)-9-methyl-7,8-bis(2-methylallyloxy)-2-oxo-oxonan-3-yl]carbamoyl]-3-pyridyl]oxymethyl acetate [F16]”, the “PUCCRT 1DP disease control” value in experiment [1] (setting [11]) was “A (80-100)”. The “PUCCRT 3DC disease control” value in experiment [1] (setting [12]) is given as “A (80-100)”. In addition, the “SEPTTR 1DP disease control” value in experiment [2] (setting [11]) is reported as “A (80-100)”. Moreover, the “SEPTTR 3DC disease control” value in experiment [2] (setting [12]) is reported as “A (80-100)”.
As for `COc1ccnc(C(=O)N[C@H]2CCC[C@H](Oc3ccccc3)[C@@H](OCc3ccccc3)[C@H](C)OC2=O)c1O` [F24], the pest or weed control at 100 ppm in experiment [1] (setting [3]), in experiment [1] (setting [4]), in experiment [2] (setting [5]) and in experiment [2] (setting [6]) was 80 to 100% throughout.
Consider `CCCO[C@H]1CCC[C@H](NC(=O)c2nccc(OC)c2OCOC(C)=O)C(=O)O[C@@H](C)[C@@H]1Oc1ccc(F)cc1` [F265], for which the pest or weed control at 100 ppm in experiment [1] (setting [7]), in experiment [1] (setting [8]), in experiment [2] (setting [9]) and in experiment [2] (setting [10]) was 80 to 100% in each case. Moreover, the pest or weed control at 121.5 g/ha in experiment [1] (setting [13]) lay within 80 to 100%; in experiment [1] (setting [14]) it was 0 to 80%; in experiment [2] (setting [15]), 80 to 100%.
As for `COc1ccnc(C(=O)N[C@H]2CCC[C@H](Oc3ccccc3)[C@@H](OC(=O)C3CCCC3)[C@H](C)OC2=O)c1OCOC(C)=O` [F233], the pest or weed control at 100 ppm in experiment [1] (setting [7]), in experiment [1] (setting [8]), in experiment [2] (setting [9]) and in experiment [2] (setting [10]) was 80 to 100% throughout. Also, the pest or weed control at 121.5 g/ha in experiment [1] (setting [13]) is 80 to 100%; in experiment [1] (setting [14]) it was 0 to 80%; in experiment [2] (setting [15]) it was 80 to 100%; in experiment [2] (72 h, Wheat Leaf Blotch, 3 Day Curative, read-out: Disease Control SEPTTR 3 DC 121.5 g/H) it was 80 to 100%.
Turning to “N-[(3S,7S,8S,9S)-7,8-dibenzyloxy-9-methyl-2-oxo-oxonan-3-yl]-3-hydroxy-4-methoxypyridine-2-carboxamide [F15]”, the “PUCCRT 1DP disease control” value in experiment [1] (setting [11]) is listed as “A (80-100)”. For the same molecule, the “PUCCRT 3DC disease control” value in experiment [1] (setting [12]) was “A (80-100)”. The “SEPTTR 1DP disease control” value in experiment [2] (setting [11]) is recorded as “A (80-100)”. Moreover, in experiment [2] (setting [12]), the “SEPTTR 3DC disease control” value is “A (80-100)”.
`COc1ccnc(C(=O)N[C@H]2CCC[C@H](Oc3ccccc3)[C@@H](OC/C=C/C(F)(F)F)[C@H](C)OC2=O)c1OCOC(C)=O` [F106]: the pest or weed control at 100 ppm in experiment [1] (setting [3]), in experiment [1] (setting [4]), in experiment [2] (setting [5]) and in experiment [2] (setting [6]) was 80 to 100% each time.
In the case of `CCCO[C@H]1[C@H](C)OC(=O)[C@@H](NC(=O)c2nccc(OC)c2O)CCC[C@@H]1OC1CCCC1` [F118], the pest or weed control at 100 ppm in experiment [1] (setting [3]) was in the range of 80 to 100%; in experiment [1] (setting [4]) it was 80 to 100%; in experiment [2] (setting [5]), 80 to 100%; in experiment [2] (setting [6]), 0 to 80%.
As to `CCCCCO[C@H]1[C@H](C)OC(=O)[C@@H](NC(=O)c2nccc(OC)c2OCOC(C)=O)CCC[C@@H]1Oc1ccccc1` [F96], the pest or weed control at 100 ppm in experiment [1] (setting [3]), in experiment [1] (setting [4]), in experiment [2] (setting [5]) and in experiment [2] (setting [6]) was 80 to 100% each time.
For `CCCO[C@H]1[C@H](C)OC(=O)[C@@H](NC(=O)c2nccc(OC)c2O)CCC[C@@H]1Oc1ccc(F)cc1` [F264], the pest or weed control at 100 ppm in experiment [1] (setting [7]) fell in the range of 0 to 80%; in experiment [1] (setting [8]), 80 to 100%; in experiment [2] (setting [9]), 80 to 100%; in experiment [2] (setting [10]) it was 0 to 80%.
With `COc1ccnc(C(=O)N[C@H]2CCC[C@H](OCC(C)C)[C@@H](OCCCc3ccccc3)[C@H](C)OC2=O)c1OC(C)=O` [F214], the pest or weed control at 100 ppm in experiment [1] (setting [3]), in experiment [1] (setting [4]), in experiment [2] (setting [5]) and in experiment [2] (setting [6]) was 80 to 100% throughout.
For the molecule `COc1ccnc(C(=O)N[C@H]2CCC[C@H](OC(=O)C3CCCC3)[C@@H](OC3CCCC3)[C@H](C)OC2=O)c1OCOC(C)=O` [F158], the pest or weed control at 100 ppm in experiment [1] (setting [3]), in experiment [1] (setting [4]), in experiment [2] (setting [5]) and in experiment [2] (setting [6]) was 80 to 100% in each case.
Regarding `COCCC(=O)Oc1c(OC)ccnc1C(=O)N[C@H]1CCC[C@H](OCC(C)C)[C@@H](OC(=O)C2CCCC2)[C@H](C)OC1=O` [F152], the pest or weed control at 100 ppm in experiment [1] (setting [3]), in experiment [1] (setting [4]), in experiment [2] (setting [5]) and in experiment [2] (setting [6]) was 80 to 100% each time.
With `COc1ccnc(C(=O)N[C@H]2CCC[C@H](OC3CCCC3)[C@@H](OCC(C)C)[C@H](C)OC2=O)c1OCOC(C)=O` [F122], the pest or weed control at 100 ppm in experiment [1] (setting [3]), in experiment [1] (setting [4]), in experiment [2] (setting [5]) and in experiment [2] (setting [6]) was 80 to 100% in each case.
For `COc1ccc(O[C@H]2CCC[C@H](NC(=O)c3nccc(OC)c3O)C(=O)O[C@@H](C)[C@@H]2OC2CCCC2)cc1` [F167], the pest or weed control at 100 ppm in experiment [1] (setting [3]), in experiment [1] (setting [4]), in experiment [2] (setting [5]) and in experiment [2] (setting [6]) was 80 to 100% in each case.
As to `COc1ccc(O[C@H]2CCC[C@H](NC(=O)c3nccc(OC)c3O)C(=O)O[C@@H](C)[C@@H]2OCC(C)C)cc1` [F65], the pest or weed control at 100 ppm in experiment [1] (setting [3]) lay within 80 to 100%; in experiment [1] (setting [4]), 80 to 100%; in experiment [2] (setting [5]), 80 to 100%; in experiment [2] (setting [6]), 0 to 80%.
`COCCC(=O)Oc1c(OC)ccnc1C(=O)N[C@H]1CCC[C@H](OCC(C)C)[C@@H](OCCCc2ccccc2)[C@H](C)OC1=O` [F215]: the pest or weed control at 100 ppm in experiment [1] (setting [3]), in experiment [1] (setting [4]), in experiment [2] (setting [5]) and in experiment [2] (setting [6]) was 80 to 100% in each case.
Consider `COc1ccnc(C(=O)N[C@H]2CCC[C@H](OCCCC(F)(F)F)[C@@H](OCCCC(F)(F)F)[C@H](C)OC2=O)c1OCOC(C)=O` [F87], for which the pest or weed control at 100 ppm in experiment [1] (setting [3]), in experiment [1] (setting [4]), in experiment [2] (setting [5]) and in experiment [2] (setting [6]) was 80 to 100% in each case.
